How the values were obtained:
[1] = Accelerated stability study of bupropion HBr, closed bottles, 40° C./75% RH, 3 and 6 months, HPLC; format: physicochemical; settings: 40° C., R.H. 75%; for Chromatographic purity B) (HPLC) 4) 2-N-(tert-Butyl)-aminopropiophenone / Chromatographic purity B) (HPLC) 5) single unknown impurity (each): LOQ 0.02%, LOD 0.002%; for Chromatographic purity A) (HPLC) 1) 3′-Chloropropiophenone / Chromatographic purity A) (HPLC) 3) 3′-Chlorobenzoic acid / Chromatographic purity A) (HPLC) 2) 3′-Chloro-2-bromopropiophenone: LOQ 0.05%; for Chromatographic purity A) (HPLC) 1) 3′-Chloropropiophenone / Chromatographic purity A) (HPLC) 3) 3′-Chlorobenzoic acid: LOD 0.01%; for Chromatographic purity A) (HPLC) 2) 3′-Chloro-2-bromopropiophenone: LOD 0.04%
Experimental: The samples were prepared in closed bottles and placed in the stability chamber. HPLC analysis was conducted on the samples prior to placing them in the stability chamber (time 0), and after 3 months and 6 months. The amounts of the main degradation products present at time 0 were compared with those amounts present after 3 months and 6 months. […] For each sample tested, at each time period, two different HPLC assays were run. The first assay labelled chromatographic purity A, measured the percentage of three impurities 3′chloropropiophenone, 3′-Chloro-2-bromopropiophenone and 3′-Chlorobenzoic acid. The second assay, labelled chromatographic purity B, measured the percentage of 2-N-(tert-Butyl)-aminopropiophenone, a single unknown impurity and the total unknown impurities.

[2] = Shelf life stability program of bupropion HBr, 25° C./60% RH, 3 and 6 months, HPLC; format: physicochemical; settings: Batch D00894, 25° C., R.H. 60%; for Chromatographic purity B) (HPLC) 4) 2-N-(tert-Butyl)-aminopropiophenone / Chromatographic purity B) (HPLC) 5) single unknown impurity (each): LOQ 0.02%, LOD 0.002%; for Chromatographic purity A) (HPLC) 1) 3′-Chloropropiophenone / Chromatographic purity A) (HPLC) 3) 3′-Chlorobenzoic acid / Chromatographic purity A) (HPLC) 2) 3′-Chloro-2-bromopropiophenone: LOQ 0.05%; for Chromatographic purity A) (HPLC) 1) 3′-Chloropropiophenone / Chromatographic purity A) (HPLC) 3) 3′-Chlorobenzoic acid: LOD 0.01%; for Chromatographic purity A) (HPLC) 2) 3′-Chloro-2-bromopropiophenone: LOD 0.04%
Experimental: The stability of bupropion HBr was studied over a longer term under conditions meant to approximate standard storage or shelf conditions. Samples were prepared in closed containers and subjected to long-term storage at 25° C.+2° C. and 60%+5% RH in a stability chamber. The samples were analyzed by HPLC prior to being placed in the stability chamber (time 0) and after 3 months and 6 months. The amounts of the main degradation products present at time 0 were compared with the amounts present at 3 months and 6 months. As shown in Table 77-79 three different batches of bupropion HBr were tested. As in Example 10 each sample was tested under two HPLC assay conditions to identify 6 impurities or groups of impurities as described in Example 10.

## Br.CC(NC(C)(C)C)C(=O)c1cccc(Cl)c1 (stereo not drawn) [Bupropion•HBr]
[1]; Batch D00894, 3 month
  Assay (HPLC): 99.6 % on d.b.
  Chromatographic purity (HPLC: A + B) Total impurities: 0.1%
  Chromatographic purity B) (HPLC) 6) total unknown impurities: 6) 0.06%
  Description (white or almost white crystalline powder): conform
  Identification IR, HPLC: positive
  Water content (K.F.): 0.07%
  Chromatographic purity B) (HPLC) 4) 2-N-(tert-Butyl)-aminopropiophenone: 4) 0.03%
  Chromatographic purity B) (HPLC) 5) single unknown impurity (each): 5) 0.04%
  Chromatographic purity A) (HPLC) 1) 3′-Chloropropiophenone: 1) n.q.
  Chromatographic purity A) (HPLC) 3) 3′-Chlorobenzoic acid: 3) n.q.
  Chromatographic purity A) (HPLC) 2) 3′-Chloro-2-bromopropiophenone: 2) n.d.
[1]; Batch D00894, 6 months
  Assay (HPLC): 99.7 % on d.b.
  Chromatographic purity (HPLC: A + B) Total impurities: 0.1%
  Chromatographic purity B) (HPLC) 6) total unknown impurities: 6) 0.02%
  Description (white or almost white crystalline powder): conform
  Identification IR, HPLC: positive
  Water content (K.F.): 0.08%
  Chromatographic purity B) (HPLC) 4) 2-N-(tert-Butyl)-aminopropiophenone: 4) 0.04%
  Chromatographic purity B) (HPLC) 5) single unknown impurity (each): 5) n.q.
  Chromatographic purity A) (HPLC) 1) 3′-Chloropropiophenone: 1) 0.05%
  Chromatographic purity A) (HPLC) 3) 3′-Chlorobenzoic acid: 3) n.q.
  Chromatographic purity A) (HPLC) 2) 3′-Chloro-2-bromopropiophenone: 2) n.d.
[1]; Batch D00894, time 0
  Assay (HPLC): 99.6 % on d.b.
  Chromatographic purity (HPLC: A + B) Total impurities: 0.1%
  Chromatographic purity B) (HPLC) 6) total unknown impurities: 6) 0.04%
  Description (white or almost white crystalline powder): conform
  Identification IR, HPLC: positive
  Water content (K.F.): 0.05%
  Chromatographic purity B) (HPLC) 4) 2-N-(tert-Butyl)-aminopropiophenone: 4) 0.04%
  Chromatographic purity B) (HPLC) 5) single unknown impurity (each): 5) 0.04%
  Chromatographic purity A) (HPLC) 1) 3′-Chloropropiophenone: 1) n.d.
  Chromatographic purity A) (HPLC) 3) 3′-Chlorobenzoic acid: 3) n.q.
  Chromatographic purity A) (HPLC) 2) 3′-Chloro-2-bromopropiophenone: 2) n.d.
[1]; Batch D00895, 3 month
  Assay (HPLC): 100.7 % on d.b.
  Chromatographic purity (HPLC: A + B) Total impurities: 0.1%
  Chromatographic purity B) (HPLC) 6) total unknown impurities: 6) 0.05%
  Description (white or almost white crystalline powder): conform
  Identification IR, HPLC: positive
  Water content (K.F.): 0.07%
  Chromatographic purity B) (HPLC) 4) 2-N-(tert-Butyl)-aminopropiophenone: 4) 0.03%
  Chromatographic purity B) (HPLC) 5) single unknown impurity (each): 5) 0.04%
  Chromatographic purity A) (HPLC) 1) 3′-Chloropropiophenone: 1) n.q.
  Chromatographic purity A) (HPLC) 3) 3′-Chlorobenzoic acid: 3) 0.05%
  Chromatographic purity A) (HPLC) 2) 3′-Chloro-2-bromopropiophenone: 2) n.d.
[1]; Batch D00895, 6 months
  Assay (HPLC): 99.7 % on d.b.
  Chromatographic purity (HPLC: A + B) Total impurities: 0.1%
  Chromatographic purity B) (HPLC) 6) total unknown impurities: 6) 0.02%
  Description (white or almost white crystalline powder): conform
  Identification IR, HPLC: positive
  Water content (K.F.): 0.07%
  Chromatographic purity B) (HPLC) 4) 2-N-(tert-Butyl)-aminopropiophenone: 4) 0.04%
  Chromatographic purity B) (HPLC) 5) single unknown impurity (each): 5) n.q.
  Chromatographic purity A) (HPLC) 1) 3′-Chloropropiophenone: 1) 0.05%
  Chromatographic purity A) (HPLC) 3) 3′-Chlorobenzoic acid: 3) n.q.
  Chromatographic purity A) (HPLC) 2) 3′-Chloro-2-bromopropiophenone: 2) n.d.
[1]; Batch D00895, time 0
  Assay (HPLC): 99.2 % on d.b.
  Chromatographic purity (HPLC: A + B) Total impurities: 0.1%
  Chromatographic purity B) (HPLC) 6) total unknown impurities: 6) 0.04%
  Description (white or almost white crystalline powder): conform
  Identification IR, HPLC: positive
  Water content (K.F.): 0.04%
  Chromatographic purity B) (HPLC) 4) 2-N-(tert-Butyl)-aminopropiophenone: 4) 0.04%
  Chromatographic purity B) (HPLC) 5) single unknown impurity (each): 5) 0.04%
  Chromatographic purity A) (HPLC) 1) 3′-Chloropropiophenone: 1) n.d.
  Chromatographic purity A) (HPLC) 3) 3′-Chlorobenzoic acid: 3) n.q.
  Chromatographic purity A) (HPLC) 2) 3′-Chloro-2-bromopropiophenone: 2) n.d.
[1]; Batch D00896, 3 month
  Assay (HPLC): 100.0 % on d.b.
  Chromatographic purity (HPLC: A + B) Total impurities: 0.1%
  Chromatographic purity B) (HPLC) 6) total unknown impurities: 6) 0.05%
  Description (white or almost white crystalline powder): conform
  Identification IR, HPLC: positive
  Water content (K.F.): 0.11%
  Chromatographic purity B) (HPLC) 4) 2-N-(tert-Butyl)-aminopropiophenone: 4) 0.03%
  Chromatographic purity B) (HPLC) 5) single unknown impurity (each): 5) 0.04%
  Chromatographic purity A) (HPLC) 1) 3′-Chloropropiophenone: 1) n.q.
  Chromatographic purity A) (HPLC) 3) 3′-Chlorobenzoic acid: 3) n.q.
  Chromatographic purity A) (HPLC) 2) 3′-Chloro-2-bromopropiophenone: 2) n.d.
[1]; Batch D00896, 6 months
  Assay (HPLC): 100.4 % on d.b.
  Chromatographic purity (HPLC: A + B) Total impurities: 0.1%
  Chromatographic purity B) (HPLC) 6) total unknown impurities: 6) n.q.
  Description (white or almost white crystalline powder): conform
  Identification IR, HPLC: positive
  Water content (K.F.): 0.04%
  Chromatographic purity B) (HPLC) 4) 2-N-(tert-Butyl)-aminopropiophenone: 4) 0.04%
  Chromatographic purity B) (HPLC) 5) single unknown impurity (each): 5) n.q.
  Chromatographic purity A) (HPLC) 1) 3′-Chloropropiophenone: 1) 0.05%
  Chromatographic purity A) (HPLC) 3) 3′-Chlorobenzoic acid: 3) n.q.
  Chromatographic purity A) (HPLC) 2) 3′-Chloro-2-bromopropiophenone: 2) n.d.
[1]; Batch D00896, Time 0
  Assay (HPLC): 99.3 % on d.b.
  Chromatographic purity (HPLC: A + B) Total impurities: 0.1%
  Chromatographic purity B) (HPLC) 6) total unknown impurities: 6) 0.05%
  Description (white or almost white crystalline powder): conform
  Identification IR, HPLC: positive
  Water content (K.F.): 0.06%
  Chromatographic purity B) (HPLC) 4) 2-N-(tert-Butyl)-aminopropiophenone: 4) 0.04%
  Chromatographic purity B) (HPLC) 5) single unknown impurity (each): 5) 0.05%
  Chromatographic purity A) (HPLC) 1) 3′-Chloropropiophenone: 1) n.d.
  Chromatographic purity A) (HPLC) 3) 3′-Chlorobenzoic acid: 3) n.q.
  Chromatographic purity A) (HPLC) 2) 3′-Chloro-2-bromopropiophenone: 2) n.d.
[2]; 3 months
  Assay (HPLC): 99.4 % on d.b.
  Chromatographic purity (HPLC: A + B) Total impurities: 0.1%
  Chromatographic purity B) (HPLC) 6) total unknown impurities: 6) 0.05%
  Description (white or almost white crystalline powder): conform
  Identification IR, HPLC: positive
  Water content (K.F.): 0.05%
  Chromatographic purity B) (HPLC) 4) 2-N-(tert-Butyl)-aminopropiophenone: 4) 0.03%
  Chromatographic purity B) (HPLC) 5) single unknown impurity (each): 5) 0.04%
  Chromatographic purity A) (HPLC) 1) 3′-Chloropropiophenone: 1) n.q.
  Chromatographic purity A) (HPLC) 3) 3′-Chlorobenzoic acid: 3) n.q.
  Chromatographic purity A) (HPLC) 2) 3′-Chloro-2-bromopropiophenone: 2) n.d.
[2]; 6 months
  Assay (HPLC): 100.2 % on d.b.
  Chromatographic purity (HPLC: A + B) Total impurities: 0.1%
  Chromatographic purity B) (HPLC) 6) total unknown impurities: 6) 0.02%
  Description (white or almost white crystalline powder): conform
  Identification IR, HPLC: positive
  Water content (K.F.): 0.06%
  Chromatographic purity B) (HPLC) 4) 2-N-(tert-Butyl)-aminopropiophenone: 4) 0.05%
  Chromatographic purity B) (HPLC) 5) single unknown impurity (each): 5) n.q.
  Chromatographic purity A) (HPLC) 1) 3′-Chloropropiophenone: 1) 0.05%
  Chromatographic purity A) (HPLC) 3) 3′-Chlorobenzoic acid: 3) n.q.
  Chromatographic purity A) (HPLC) 2) 3′-Chloro-2-bromopropiophenone: 2) n.d.
[2]; 9 months
  Assay (HPLC): 99.5 % on d.b.
  Chromatographic purity (HPLC: A + B) Total impurities: n.q.
  Chromatographic purity B) (HPLC) 6) total unknown impurities: 6) n.q.
  Description (white or almost white crystalline powder): conform
  Identification IR, HPLC: positive
  Water content (K.F.): 0.05%
  Chromatographic purity B) (HPLC) 4) 2-N-(tert-Butyl)-aminopropiophenone: 4) n.d.
  Chromatographic purity B) (HPLC) 5) single unknown impurity (each): 5) n.q.
  Chromatographic purity A) (HPLC) 1) 3′-Chloropropiophenone: 1) n.q.
  Chromatographic purity A) (HPLC) 3) 3′-Chlorobenzoic acid: 3) n.q.
  Chromatographic purity A) (HPLC) 2) 3′-Chloro-2-bromopropiophenone: 2) n.d.

— patent publication US7884136B2, “Modified-release formulations of a bupropion salt” (Biovail Laboratories International S.R.L., priority 2005, dated 2011)
